In patent publication US5284834A, “Adenosine functionalized congeners as cardiovascular treating agents for animals and methods for using same” (priority 1992, dated 1994):
Entries after “also recorded” stand apart in the source; their conditions may differ.

Legend:
[1] = Water solubility; assay type: physicochemical
[2] = biological target: T1, Brain A1-adenosine receptor (Rattus norvegicus, UniProt P25099); assay: A1-binding assay: antagonism of binding of 1nM [3H]N6-cyclohexyladenosine to rat cerebral cortical membranes; details: molar potency ratio derived from Ki values; rat cerebral cortical membranes
T1 construct: -cyclohexyladenosine to rat cerebral cortical membranes; from tissue; host or cells: rat cerebral cortical membranes
T1 sequence (P25099 1-326): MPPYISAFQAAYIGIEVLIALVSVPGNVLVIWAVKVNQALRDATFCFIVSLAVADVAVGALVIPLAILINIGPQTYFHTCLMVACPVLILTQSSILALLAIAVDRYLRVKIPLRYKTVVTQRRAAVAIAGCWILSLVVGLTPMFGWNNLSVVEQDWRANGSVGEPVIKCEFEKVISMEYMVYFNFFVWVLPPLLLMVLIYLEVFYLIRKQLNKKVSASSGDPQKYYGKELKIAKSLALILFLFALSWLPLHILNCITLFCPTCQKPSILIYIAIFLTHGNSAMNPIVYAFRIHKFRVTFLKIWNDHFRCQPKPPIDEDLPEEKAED
Excerpt: (§1) In the present invention there is compared the A1 - and A2 -potencies of a series of long-chain derivatives of adenosine suitable for attachment to "carriers," such as peptides or proteins, and for immobilization to polymeric matrices for affinity chromatography of adenosine receptors. The method employed is a comparison of increasing coronary blood flow via activation of an A2 -adenosine receptor versus an A1 -binding assay in rat brain.
^b Molar potency ratio relative to adenosine, derived from Ki
values for antagonism of binding of 1nM [^3 H]N^6
-cyclohexyladenosine to rat cerebral cortical membranes.
(§2) The potencies at A2 -receptors (Table 1) are expressed as a molar potency ratio of the EC50 value of adenosine divided by that of the adenosine analogue. A common reference compound on which to base molar potency ratios was needed to facilitate comparison of activities at A1 and A2 receptors. Adenosine itself cannot be used as a reference in the A1 binding assay since treatment of the membranes with adenosine deaminase is essential. […] Thus, MeAdo was used as a suitable reference compound.

[3] = biological target: T2, Coronary A2-Adenosine Receptor (Canis lupus familiaris, UniProt P11617); assay: Coronary vasoactivity in the anesthetized, open-chest dog (intracoronary infusion; MPR from EC50); assay type: in vivo
T2 construct: The assay of coronary vasoactivity in the anesthetized, open-chest dog; from tissue; host or cells: coronary vessels in situ, anesthetized open-chest dog
T2 sequence (P11617 whole entry, the tested form may be a part): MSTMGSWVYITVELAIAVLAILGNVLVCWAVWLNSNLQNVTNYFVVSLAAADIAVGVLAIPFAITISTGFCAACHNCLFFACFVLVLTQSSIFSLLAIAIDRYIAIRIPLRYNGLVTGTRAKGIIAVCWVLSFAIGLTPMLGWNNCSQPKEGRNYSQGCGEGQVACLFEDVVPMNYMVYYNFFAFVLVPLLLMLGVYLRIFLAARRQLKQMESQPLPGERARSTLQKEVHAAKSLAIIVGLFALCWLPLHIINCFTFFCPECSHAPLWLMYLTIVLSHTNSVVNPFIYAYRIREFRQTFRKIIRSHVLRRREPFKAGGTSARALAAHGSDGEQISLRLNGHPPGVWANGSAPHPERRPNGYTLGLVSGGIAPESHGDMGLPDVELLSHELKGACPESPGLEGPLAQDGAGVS
Excerpt: as §1, §2
The assay of coronary vasoactivity in the anesthetized, open-chest dog, is described by Kusachi et al, J. Med. Chem., in press, and Olsson, et al, J. Circ. […] The assay estimates an EC-50, the concentration of analogue which produces a half maximum change in coronary conductance (reciprocal resistance). To reduce between-animal variability activity is expressed as a molar potency ratio (MPR) the value of the EC-50 of adenosine divided by that of the analogue. Owing to the low water solubility of some of the analogues, solutions for intracoronary infusion were prepared by diluting stock solutions in dimethyl sulfoxide. In such instances, solutions of adenosine used to establish a standard of potency also contained dimethyl sulfoxide. […]

[4] = biological target: T3, A2-adenosine receptor (adenylate cyclase, human platelet membranes) (Homo sapiens, UniProt P29274); assay: Stimulation of adenylate cyclase in human platelet membranes; assay type: biochemical; details: human platelet membranes; read-out: IC50 (printed lC50), stimulation of adenylate cyclase
T3 construct: stimulation of adenylate cyclase in human platelet membranes; from tissue; host or cells: human platelet membranes
T3 sequence (P29274 whole entry): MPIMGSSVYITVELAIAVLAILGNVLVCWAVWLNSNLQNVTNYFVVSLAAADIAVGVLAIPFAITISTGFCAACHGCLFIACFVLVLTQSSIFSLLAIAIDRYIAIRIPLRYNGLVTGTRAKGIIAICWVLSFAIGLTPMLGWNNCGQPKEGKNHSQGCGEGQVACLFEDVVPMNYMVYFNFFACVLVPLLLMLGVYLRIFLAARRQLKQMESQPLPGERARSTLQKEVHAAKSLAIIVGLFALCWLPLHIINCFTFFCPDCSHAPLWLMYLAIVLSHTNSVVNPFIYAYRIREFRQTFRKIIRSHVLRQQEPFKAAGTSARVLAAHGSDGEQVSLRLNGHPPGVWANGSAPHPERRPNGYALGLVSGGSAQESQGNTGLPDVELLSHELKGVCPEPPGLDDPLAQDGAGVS

water solubility (in words) [1]: practically insoluble in water
A1 Receptor MPR Relative to MeAdo [2]: 3.3
Onset of Action ([3]; coronary vasodilation, intracoronary infusion): 20 to 30 s
A2 versus A1 receptor selectivity (in words) ([3]; dog coronary A2 versus rat brain A1): highly divergent at A1 and A2 receptors
Duration of Vasodilation ([3]; intracoronary infusion): > 1 h
duration of vasodilation (in words) ([3]; intracoronary infusion): often lasted for an hour or more
A2 Receptor MPR Relative to Ado ([3]; molar potency ratio: EC50 of adenosine divided by that of the analogue, coronary, dog): 10.2 ± 7.3
A2/A1 potency ratio (MPR(A2)/MPR(A1)) ([3]; ratio of MPR (MeAdo) at dog coronary A2 receptor to MPR at rat brain A1 receptor): 61
Structure (SMILES): O=C(CCCC[C@@H]1SC[C@@H]2NC(=O)N[C@@H]21)NCCCCCC(=O)NCCNC(=O)Cc1ccc(NC(=O)Cc2ccc(Nc3ncnc4c3ncn4[C@@H]3O[C@H](CO)[C@@H](O)[C@H]3O)cc2)cc1 [Compound 19]
coronary vasoactivity (in words) ([3]; intracoronary infusion, dog): most active analogue; also recorded: three most active analogues
IC50 [4]: 2400 nM
